Experiments:
[1] = target: T1, ABL1(F317L)-phosphorylated (Homo sapiens, UniProt P00519, F317L); assay: KinomeScan; format: binding; conditions: read-out: % Control
T1 construct: purchased DiscoveRx

AKT2 = target: T2, AKT2 (Homo sapiens, UniProt P31751); assay: KinomeScan; format: binding; conditions: read-out: % Control
T2 construct: purchased DiscoveRx (Fremont, CA)

CAMK1G = target: T3, CAMK1G (Homo sapiens, UniProt Q96NX5); assay: KinomeScan; format: binding; conditions: read-out: % Control
T3 construct: purchased DiscoveRx (KinomeScan service)

CDKL3 = CDKL3 (Homo sapiens, UniProt Q8IVW4); assay: KinomeScan; format: binding; conditions: read-out: % Control
CSNK2A2 = CSNK2A2 (Homo sapiens, UniProt P19784); assay: KinomeScan; format: binding; conditions: read-out: % Control
ERK2 = target: T4, ERK2 (Homo sapiens, UniProt P28482); assay: KinomeScan; format: binding; conditions: read-out: % Control
T4 construct: purchased DiscoveRx (Fremont, CA)

INSRR = target: T5, INSRR (Homo sapiens, UniProt P14616); assay: KinomeScan; format: binding; conditions: read-out: % Control
T5 construct: purchased DiscoveRx (Fremont, CA)
T5 sequence (P14616 27-1297): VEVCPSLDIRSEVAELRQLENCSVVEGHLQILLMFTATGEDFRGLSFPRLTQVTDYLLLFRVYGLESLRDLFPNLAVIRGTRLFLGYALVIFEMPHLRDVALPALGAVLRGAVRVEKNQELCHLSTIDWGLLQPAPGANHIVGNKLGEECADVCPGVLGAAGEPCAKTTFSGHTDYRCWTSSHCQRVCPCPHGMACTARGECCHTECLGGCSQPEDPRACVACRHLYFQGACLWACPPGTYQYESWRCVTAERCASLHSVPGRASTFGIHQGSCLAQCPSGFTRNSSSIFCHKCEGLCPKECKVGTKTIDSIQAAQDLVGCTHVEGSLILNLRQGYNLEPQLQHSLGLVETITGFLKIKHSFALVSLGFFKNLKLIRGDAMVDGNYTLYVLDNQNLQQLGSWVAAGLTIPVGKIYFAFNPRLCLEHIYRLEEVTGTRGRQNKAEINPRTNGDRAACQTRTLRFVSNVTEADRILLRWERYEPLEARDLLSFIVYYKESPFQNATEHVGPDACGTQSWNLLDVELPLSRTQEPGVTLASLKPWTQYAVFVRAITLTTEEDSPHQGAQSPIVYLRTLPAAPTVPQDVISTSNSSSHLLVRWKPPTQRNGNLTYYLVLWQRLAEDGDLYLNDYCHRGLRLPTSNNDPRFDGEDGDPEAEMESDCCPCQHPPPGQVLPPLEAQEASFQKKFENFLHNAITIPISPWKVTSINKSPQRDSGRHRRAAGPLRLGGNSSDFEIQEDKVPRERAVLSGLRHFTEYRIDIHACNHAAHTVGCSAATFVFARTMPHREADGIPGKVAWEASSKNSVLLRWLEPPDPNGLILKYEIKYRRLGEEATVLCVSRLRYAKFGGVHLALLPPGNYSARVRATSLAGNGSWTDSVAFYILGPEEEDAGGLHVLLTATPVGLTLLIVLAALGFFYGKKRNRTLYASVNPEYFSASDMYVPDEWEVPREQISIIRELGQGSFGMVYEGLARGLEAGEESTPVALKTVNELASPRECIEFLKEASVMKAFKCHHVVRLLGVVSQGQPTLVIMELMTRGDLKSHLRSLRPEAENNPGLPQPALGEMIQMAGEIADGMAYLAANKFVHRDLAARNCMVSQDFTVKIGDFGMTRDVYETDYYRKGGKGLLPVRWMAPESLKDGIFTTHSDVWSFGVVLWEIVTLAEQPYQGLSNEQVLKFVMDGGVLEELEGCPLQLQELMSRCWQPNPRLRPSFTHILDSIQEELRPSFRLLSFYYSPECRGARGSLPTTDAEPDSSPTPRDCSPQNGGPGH

KIT(V559D) = target: T6, KIT(V559D) (Homo sapiens, UniProt P10721, V559D); assay: KinomeScan; format: binding; conditions: read-out: % Control
T6 construct: purchased DiscoveRx

MAPKAPK2 = target: T7, MAPKAPK2 (Homo sapiens, UniProt P49137); assay: KinomeScan; format: binding; conditions: read-out: % Control
T7 construct: purchased DiscoveRx (Fremont, CA)

MAPKAPK5 = target: T8, MAPKAPK5 (Homo sapiens, UniProt Q8IW41); assay: KinomeScan; format: binding; conditions: read-out: % Control
T8 construct: purchased DiscoveRx (Fremont, CA)

MLCK = target: T9, MLCK (Homo sapiens, UniProt Q32MK0); assay: KinomeScan; format: binding; conditions: read-out: % Control
T9 construct: purchased DiscoveRx

p38-alpha = target: T10, p38-alpha (Homo sapiens, UniProt Q16539); assay: KinomeScan; format: binding; conditions: read-out: % Control
T10 construct: purchased DiscoveRx

p38-delta = target: T11, p38-delta (Homo sapiens, UniProt O15264); assay: KinomeScan; format: binding; conditions: read-out: % Control
T11 construct: purchased DiscoveRx
T11 sequence (O15264 whole entry): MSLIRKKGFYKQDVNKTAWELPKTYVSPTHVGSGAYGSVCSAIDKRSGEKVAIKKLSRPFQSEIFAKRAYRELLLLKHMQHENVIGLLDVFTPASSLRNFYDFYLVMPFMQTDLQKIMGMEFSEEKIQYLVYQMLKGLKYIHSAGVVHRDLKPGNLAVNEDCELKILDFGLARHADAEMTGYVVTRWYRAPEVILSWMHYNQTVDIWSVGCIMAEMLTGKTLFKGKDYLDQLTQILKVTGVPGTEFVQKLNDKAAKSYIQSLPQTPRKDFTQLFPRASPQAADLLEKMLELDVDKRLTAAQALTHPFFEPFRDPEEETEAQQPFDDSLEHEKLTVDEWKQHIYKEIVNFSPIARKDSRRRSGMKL

PIM2 = target: T12, PIM2 (Homo sapiens, UniProt Q9P1W9); assay: KinomeScan; format: binding; conditions: read-out: % Control
T12 construct: purchased DiscoveRx (Fremont, CA)
T12 sequence (Q9P1W9 whole entry): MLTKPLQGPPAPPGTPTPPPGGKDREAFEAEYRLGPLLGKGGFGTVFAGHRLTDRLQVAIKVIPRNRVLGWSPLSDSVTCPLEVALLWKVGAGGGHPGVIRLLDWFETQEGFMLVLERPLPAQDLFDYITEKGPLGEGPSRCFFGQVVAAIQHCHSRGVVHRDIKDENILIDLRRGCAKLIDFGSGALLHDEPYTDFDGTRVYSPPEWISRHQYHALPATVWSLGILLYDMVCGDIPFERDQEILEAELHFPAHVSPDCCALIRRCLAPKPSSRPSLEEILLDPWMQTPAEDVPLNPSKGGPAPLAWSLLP

PIP5K2B = target: T13, PIP5K2B (Homo sapiens, UniProt P78356); assay: KinomeScan; format: binding; conditions: read-out: % Control
T13 construct: purchased DiscoveRx (Fremont, CA)
T13 sequence (P78356 whole entry): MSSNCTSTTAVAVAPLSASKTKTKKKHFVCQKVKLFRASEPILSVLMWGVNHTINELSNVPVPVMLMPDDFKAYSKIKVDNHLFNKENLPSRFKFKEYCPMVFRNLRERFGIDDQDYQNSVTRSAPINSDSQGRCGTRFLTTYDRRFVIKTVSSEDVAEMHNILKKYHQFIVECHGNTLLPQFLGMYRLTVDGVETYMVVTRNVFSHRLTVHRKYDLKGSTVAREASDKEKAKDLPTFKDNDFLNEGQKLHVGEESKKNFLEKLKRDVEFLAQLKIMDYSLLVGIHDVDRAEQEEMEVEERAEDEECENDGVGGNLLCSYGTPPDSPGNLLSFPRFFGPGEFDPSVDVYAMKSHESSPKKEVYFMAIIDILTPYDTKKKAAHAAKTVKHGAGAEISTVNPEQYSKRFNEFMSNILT

ULK3 = target: T14, ULK3 (Homo sapiens, UniProt Q6PHR2); assay: KinomeScan; format: binding; conditions: read-out: % Control
T14 construct: purchased DiscoveRx

ZAP70 = target: T15, ZAP70 (Homo sapiens, UniProt P43403); assay: KinomeScan; format: binding; conditions: read-out: % Control
T15 construct: purchased DiscoveRx
T15 sequence (P43403 whole entry): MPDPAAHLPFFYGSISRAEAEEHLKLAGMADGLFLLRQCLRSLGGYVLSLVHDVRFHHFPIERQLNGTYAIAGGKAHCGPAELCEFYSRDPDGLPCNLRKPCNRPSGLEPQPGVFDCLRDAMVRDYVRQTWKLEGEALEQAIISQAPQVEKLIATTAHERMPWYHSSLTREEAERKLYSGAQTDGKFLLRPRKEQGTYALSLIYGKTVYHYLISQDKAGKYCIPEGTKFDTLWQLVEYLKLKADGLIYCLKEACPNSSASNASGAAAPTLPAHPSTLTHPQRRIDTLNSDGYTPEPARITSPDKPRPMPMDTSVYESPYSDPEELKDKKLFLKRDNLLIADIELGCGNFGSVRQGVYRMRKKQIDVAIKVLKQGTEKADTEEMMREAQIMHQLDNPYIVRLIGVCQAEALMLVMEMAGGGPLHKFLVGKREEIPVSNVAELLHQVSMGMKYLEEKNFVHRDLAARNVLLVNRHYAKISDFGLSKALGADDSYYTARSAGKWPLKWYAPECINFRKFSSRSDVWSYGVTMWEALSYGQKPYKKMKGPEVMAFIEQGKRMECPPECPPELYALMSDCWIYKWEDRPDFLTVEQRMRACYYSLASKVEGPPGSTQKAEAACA

ADRA1A = target: T16, ADRA1A (Homo sapiens, UniProt P35348); assay: GPCR Profiler; format: cell-based
T16 construct: host or cells: Chem-1 cells with promiscuous Gα15
T16 sequence (P35348 whole entry): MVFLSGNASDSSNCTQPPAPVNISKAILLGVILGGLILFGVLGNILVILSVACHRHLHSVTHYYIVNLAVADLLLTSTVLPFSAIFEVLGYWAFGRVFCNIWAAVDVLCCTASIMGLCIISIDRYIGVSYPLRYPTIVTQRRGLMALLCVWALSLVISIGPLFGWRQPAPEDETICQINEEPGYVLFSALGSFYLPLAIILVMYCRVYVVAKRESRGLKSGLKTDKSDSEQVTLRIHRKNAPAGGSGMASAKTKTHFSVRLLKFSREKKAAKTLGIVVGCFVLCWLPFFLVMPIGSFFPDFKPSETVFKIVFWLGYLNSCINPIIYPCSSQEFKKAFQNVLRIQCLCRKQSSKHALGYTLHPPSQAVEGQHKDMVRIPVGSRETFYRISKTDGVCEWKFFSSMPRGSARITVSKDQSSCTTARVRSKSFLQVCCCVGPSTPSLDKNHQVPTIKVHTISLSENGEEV

ChemR23 = target: T17, ChemR23 (Homo sapiens, UniProt Q99788); assay: GPCR Profiler; format: cell-based
T17 construct: host or cells: Chem-1 cells with Gα15
T17 sequence (Q99788 whole entry, species assumed): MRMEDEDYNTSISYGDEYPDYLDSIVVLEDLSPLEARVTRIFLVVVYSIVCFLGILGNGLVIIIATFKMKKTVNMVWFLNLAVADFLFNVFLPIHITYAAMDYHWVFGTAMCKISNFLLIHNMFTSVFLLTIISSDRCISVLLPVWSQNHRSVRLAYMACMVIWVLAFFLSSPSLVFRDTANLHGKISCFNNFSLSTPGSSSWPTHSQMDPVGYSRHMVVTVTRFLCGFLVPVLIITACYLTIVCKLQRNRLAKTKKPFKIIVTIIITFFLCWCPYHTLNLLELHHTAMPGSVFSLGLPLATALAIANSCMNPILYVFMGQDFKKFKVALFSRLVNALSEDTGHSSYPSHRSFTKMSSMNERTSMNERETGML

Lpa1 = Lpa1 (Homo sapiens, UniProt Q92633); assay: GPCR Profiler; format: cell-based
Chain of Lpa1 (Q92633 whole entry, species assumed): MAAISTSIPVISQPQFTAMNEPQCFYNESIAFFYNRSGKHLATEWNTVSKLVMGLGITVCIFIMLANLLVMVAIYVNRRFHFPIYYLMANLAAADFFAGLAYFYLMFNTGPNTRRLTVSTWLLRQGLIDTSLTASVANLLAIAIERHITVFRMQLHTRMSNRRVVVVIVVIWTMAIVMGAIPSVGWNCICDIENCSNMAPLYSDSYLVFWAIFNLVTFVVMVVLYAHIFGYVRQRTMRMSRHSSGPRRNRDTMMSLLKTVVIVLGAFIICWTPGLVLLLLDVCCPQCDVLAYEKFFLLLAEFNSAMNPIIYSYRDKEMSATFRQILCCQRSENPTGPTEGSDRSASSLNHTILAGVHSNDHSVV

K-562 = assay: Cell Titer-Glo viability, Chronic myelogenous leukemia; format: cell-based
Experimental: OGM2 kills wide variety of cancer cell types. Cell sensitivity can be classified in to Very Sensitive (LC50<2 μM), Sensitive (LC50=2 to 10 μM), Mildly Sensitive (LC50>10 μM), and Refractory (no killing at 10 μM). The listed established cell were incubated with OGM2 at 2 μM or 10 μM for 72 hours under standard cell culture conditions, and relative cell number was assessed using Cell Titer-Glo Luminescent Cell Viability Assay (Promega™) following the manufacturer's instructions. Luminescence was determined using a Cytation 5 reader and Gen5 software package (BioTek™).
Cancer cells, which are very sensitive to killing by OGM2 (LCs <2 μM), with reported mRNA expression of GPR68 and the related proton sensing receptor GPR4. LC50's (concentrations causing 50% lethality) were determined using CellTiter-Glo (Promega™, G7570). Cells were plated in 12-well plates (CELLTREAT Scientific Products, 229112) in 1 ml of DMEM with high glucose, GlutaMAX, HEPES, or RPMI 1640 with Penicillin-Streptomycin (ThermoFisher™, 10564029, 11875119 and 15140122) and 10% FBS. Cells were incubated overnight at 37° C. in 5% CO2. Then 1 mL of fresh media was added with DMSO, OGM, or positive control (Erastin; APExBIO Technology, LLC, B1524) and cells incubated for 3 days. On the third day, all media was removed, cells were rinsed with 1×PBS, PBS was removed, and 200 μL of 1× Passive Lysis Buffer (Promega™, E1941) was added to each well. […]. Subsequently, 20 μL of lysate was added to 100 μL CellTiter-Glo™ reagent on a LUMITRAC 200 plate (Greiner™ bio-one, 82050-726). Plates were briefly spun down and read on a GloMax-Multi Detection System (Promega™).
The cells listed in the tables above were incubated with OGM2 at 2 μM or 10 μM for 72 hours under standard cell culture conditions, and relative cell number was assessed using Cell Titer-Glo Luminescent Cell Viability Assay (Promega™) following the manufacturer's instructions. Luminescence was determined using a Cytation 5 reader and Gen5 software package (BioTek™). RNA expression of GPR68 and GPR4 in the corresponding cancer cell lines are listed, according to the publicly available The Human Protein Atlas version 22.0 and Ensembl version 103.38 (see proteinatlas.org). The consensus normalized expression value (“nTPM”=normalize transcript per million) was calculated as the maximum nTPM value for each gene in the two data sources.

LPS-induced ALI = assay: LPS-induced acute lung injury; format: in vivo, mice; conditions: LPS 0.7 mg/kg intratracheally; compounds intraperitoneally
Excerpt: PMN (polymorphonuclear neutrophils).

A549 = assay: Crystal violet viability, 24 hours; format: cell-based
Experimental: A549 lung cancer cells were plated at different concentrations of cell per well in a 96-well plate. On the following day cells were treated with increasing doses of OGM2. Twenty-four hours later cells viability was assayed with crystal violet and normalized to untreated.

T2 sequence (P31751 whole entry): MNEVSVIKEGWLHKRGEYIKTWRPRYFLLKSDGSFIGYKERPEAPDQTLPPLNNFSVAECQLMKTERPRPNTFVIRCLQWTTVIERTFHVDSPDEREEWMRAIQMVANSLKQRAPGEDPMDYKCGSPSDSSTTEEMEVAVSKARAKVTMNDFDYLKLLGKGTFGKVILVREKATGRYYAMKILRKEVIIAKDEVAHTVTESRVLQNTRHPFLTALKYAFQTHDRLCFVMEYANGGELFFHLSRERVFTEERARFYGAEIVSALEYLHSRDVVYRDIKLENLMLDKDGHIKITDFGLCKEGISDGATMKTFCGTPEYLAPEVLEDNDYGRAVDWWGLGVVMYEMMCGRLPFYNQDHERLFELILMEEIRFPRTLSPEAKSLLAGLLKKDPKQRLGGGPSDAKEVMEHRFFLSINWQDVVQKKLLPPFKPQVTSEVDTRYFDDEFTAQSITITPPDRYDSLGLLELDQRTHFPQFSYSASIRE
T1 sequence (P00519 242-493 F317L limits assumed): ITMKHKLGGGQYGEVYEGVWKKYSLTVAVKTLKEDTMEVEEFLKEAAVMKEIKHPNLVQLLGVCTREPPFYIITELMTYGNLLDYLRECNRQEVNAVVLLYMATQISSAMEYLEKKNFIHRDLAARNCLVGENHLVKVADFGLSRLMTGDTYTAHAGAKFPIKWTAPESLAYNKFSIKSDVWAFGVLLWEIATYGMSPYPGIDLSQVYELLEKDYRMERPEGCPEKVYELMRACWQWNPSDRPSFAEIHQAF

`CCc1ccc2c(c1)C1(NN=C(c3cccc4ccccc34)S1)C(=O)N2` (centres unmarked) [OGM1, 5-ethyl-5′-naphthalen-1-ylspiro[1H-indole-3,2′-3H-1,3,4-thiadiazole]-2-one] gave a remaining binding at 10 µM [1] of 92%, a remaining binding at 10 µM (AKT2) of 93% and a remaining binding at 10 µM (CAMK1G) of 80%. For the same molecule, the remaining binding at 10 µM (CDKL3) was 100%, the remaining binding at 10 µM (CSNK2A2) was 93% and the remaining binding at 10 µM (ERK2) was 77%. It also gave a remaining binding at 10 µM (INSRR) of 100%, a remaining binding at 10 µM (KIT(V559D)) of 71% and a remaining binding at 10 µM (MAPKAPK2) of 100%. For the same molecule, the remaining binding at 10 µM (MAPKAPK5) was 86%, the remaining binding at 10 µM (MLCK) was 100% and the remaining binding at 10 µM (p38-alpha) was 54%. For the same molecule, the remaining binding at 10 µM (p38-delta) was 81%, the remaining binding at 10 µM (PIM2) was 84% and the remaining binding at 10 µM (PIP5K2B) was 100%. For the same molecule, the remaining binding at 10 µM (ULK3) was 100%, the remaining binding at 10 µM (ZAP70) was 73% and the Antagonism (ADRA1A; 10 uM) was 3. It also gave an Agonism (ADRA1A; 12.5 uM) of 1.9, an Antagonism (ChemR23; 10 uM) of 0.1 and an Agonism (ChemR23; 12.5 uM) of 0. For the same molecule, the Antagonism (Lpa1; 10 uM) was 89.5 and the Agonism (Lpa1; 12.5 uM) was 0.5.

`CCc1ccc2c(c1)C1(NN=C(c3ccccc3)S1)C(=O)N2` (centres unmarked) [OGM2] was tested, and the Class (K-562) was “Sensitive (Sensitive (LC50=2 to 10 μM))”, the “% Survival 2 μM OGM” value (K-562; 72 hours) was 56.7% and the “% Survival 10 μM OGM” value (K-562; 72 hours) was 37.0%. The CC50 (K-562; Homo sapiens, K562, 72 hours, read-out: LC50 (the source's name)) was 2 to 10 µM, the “inflammatory cell infiltrates in BAL” value (LPS-induced ALI) was “reduced inflammatory cell infiltrates in BAL” and the toxicity (A549) was “relatively High doses of OGM2 are necessary for toxicity in A549 cells”.

Reference: patent US20240327364A1, “THERAPEUTIC TARGETING OF GPR68 TO INDUCE FERROPTOSIS” (University Of Maryland, Baltimore, priority 2023, published 2024)
